Results on one compound are retold here after patent publication EP0684043A1, “Therapeutic composition for corneal impairment containing a phosphonic acid diester compound” (Senju Pharmaceutical Co., Ltd., priority 1994, dated 1995).

Like-named read-outs stand apart in the source and are kept apart here.

One data set in a line: Acute toxicity (LD50). As to conditions: rat, in vivo, rats, read-out: LD₅₀. The method, then: The compound for use as an active ingredient in the therapeutic composition for corneal impairment according to this invention is a very safe substance with an extremely low toxic potential and, as such, can be used with advantage for the purposes of this invention. [e.g. the LD₅₀ values of L-ascorbyl DL-α-tocopheryl phosphate potassium (hereinafter referred to briefly as EPC-K) ≧ 5 g/kg p.o. (rats) and ≧ 100 mg/kg i.v. (rats)].

The test system of data set [1] is UV-induced corneal lesions in rabbits. Nature of the data set: Inhibitory effect on UV-induced corneal lesions in rabbits (fluorescein penetration into cornea, anterior fluorophotometer). The class given is in vivo, White rabbits. As to conditions: rabbit cornea. The method, then:
The inhibitory effect of the present compound on UV-induced corneal lesions in rabbits was evaluated. Test substance: L-Ascorbyl DL-α-tocopheryl phosphate potassium (abbreviation: EPC-K). Method: White rabbits were used; 4 animals assigned to the present compound treatment group and 3 assigned to a control group (the nictitating membrane was excised beforehand).
For UV irradiation, Hoya-Schott's HLS200U (dominant wavelength 365 nm) equipped with a 200 W mercury-xenon lamp as the light source was used. Ushio Electric's Unimeter UIT-101 was used for the determination of luminous energy.
One eye of each rabbit was kept open with an eye speculum and set at a distance of 43 cm from the light source so that the irradiation energy would be 0.024 J/cm². The eye was irradiated with ultraviolet light under the conditions of 0.2 mW/cm² and 2 minutes. The fellow eye was protected with an eye patch.
After UV irradiation, the vehicle (2.6% concentrated glycerin solution) was instilled in the eyes of rabbits in the control group 3 times daily and 0.1% EPC-K (dissolved in 2.6% concentrated glycerin solution) was instilled as often into the eyes of rabbits in the present compound treatment group.
The degree of rabbit corneal lesion was evaluated by the following method^1). Using fluorescein as a tracer, the fluorescence intensity of the tracer dye penetrating into the cornea within a predetermined region was measured for a quantitative assessment of the barrier function of the corneal epithelium (The corneal epithelium has a barrier function^2) to restrict penetration of any substance into the deep layer of the cornea and when an erosion or other injury occurs in the corneal epithelium, this barrier function is compromised so that the penetration of the substance into the depth of the cornea is increased). Thus, at 0, 0.5, 6, 12, 24, 48 and 72 hours after UV irradiation, fluorescein sodium was instilled into the eye and the fluorescence intensity of the fluorescein sodium that had penetrated into the cornea was measured with a Kowa anterior fluorophotometer. 1) Norihiko Yokoi et al.: Quantitative evaluation of corneal epithelial barrier function with a new fluorophotometer, Journal of the Eye, 10(8); 1357-1363, 1993 2) Klyce SD and Crosson CE: Transport processes across the rabbit corneal epithelium, a review. Curr Eye Res 4 4;427-432, 1985.

With `Cc1c(C)c2c(c(C)c1OP(=O)(O)OC1=C(O)[C@@H]([C@@H](O)CO)OC1=O)CCC(C)(CCCC(C)CCCC(C)CCCC(C)C)O2` (mixture of isomers) [EPC-K, L-ascorbyl DL-α-tocopheryl phosphate potassium], the LD50 was ≥ 100 mg/kg in “Acute toxicity (LD50)” (iv) and ≥ 5000 mg/kg in the data set “Acute toxicity (LD50)” (po). Also, the intensity of fluorescence in data set [1] (0 hours after UV irradiation, 0.1% EPC-K in 2.6% concentrated glycerin solution instilled 3 times daily, control group 457) was 259; in data set [1] (0.5 hours after UV irradiation, 0.1% EPC-K instilled 3 times daily, control group 791), 447; in data set [1] (6 hours after UV irradiation, 0.1% EPC-K instilled 3 times daily, control group 899), 695; in data set [1] (12 hours after UV irradiation, 0.1% EPC-K instilled 3 times daily, control group 3813), 1038; in data set [1] (24 hours after UV irradiation, 0.1% EPC-K instilled 3 times daily, control group 3860), 875; in data set [1] (48 hours after UV irradiation, 0.1% EPC-K instilled 3 times daily, control group 870) it was 343. In data set [1] (72 hours after UV irradiation, 0.1% EPC-K instilled 3 times daily, control group 655), the intensity of fluorescence was determined as 311.
